Legend:
Test in all cases: relative viability (nuclei count vs DMSO), 5 days (fraction); higher = more cells survive
Dasatinib + Olaparib = compound: Cc1nc(Nc2ncc(C(=O)Nc3c(C)cccc3Cl)s2)cc(N2CCN(CCO)CC2)n1 [Dasatinib] + O=C(c1cc(Cc2n[nH]c(=O)c3ccccc23)ccc1F)N1CCN(C(=O)C2CC2)CC1 [Olaparib] (partner 8 µM)
Method in brief: (§1)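 Relative viability divides the nuclei count in treated wells by that in vehicle wells. Lung cancer cell lines were seeded in 1536-well plates, dosed by pin tool the next day, and fixed and stained after 5 days in one step with final 0.05% Triton X-100, 1% formaldehyde and 1 ug/ml Hoechst. Dosing was a single drug or a fixed anchor-drug dose plus five library-drug doses (not always all listed) in √10 steps, and values are medians of duplicate plates imaged at 4×.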

Dasatinib + Phenformin = compound: Cc1nc(Nc2ncc(C(=O)Nc3c(C)cccc3Cl)s2)cc(N2CCN(CCO)CC2)n1 [Dasatinib] + N=C(N)NC(=N)NCCc1ccccc1 [Phenformin] (partner 250 µM)
Method in brief: as §1

XMD13-2 + Decitabine = compound: C1CC1C(=O)NC2=NNC3=C2C=CC(=C3)C4=CC(=CC=C4)C(=O)NC5CC5 [XMD13-2] + Nc1ncn([C@H]2C[C@H](O)[C@@H](CO)O2)c(=O)n1 [Decitabine] (partner 2 µM)
Method in brief: as §1

XMD13-2 + Palbociclib = compound: C1CC1C(=O)NC2=NNC3=C2C=CC(=C3)C4=CC(=CC=C4)C(=O)NC5CC5 [XMD13-2] + CC(=O)c1c(C)c2cnc(Nc3ccc(N4CCNCC4)cn3)nc2n(C2CCCC2)c1=O [Palbociclib] (partner 0.5 µM)
Method in brief: as §1

Row | Cell Line | relative viability (Dasatinib + Olaparib; first compound 0.005 µM) | relative viability (Dasatinib + Olaparib; first compound 0.01581 µM) | relative viability (Dasatinib + Olaparib; first compound 0.05 µM) | relative viability (Dasatinib + Olaparib; first compound 0.1581 µM) | relative viability (Dasatinib + Olaparib; first compound 0.5 µM) | relative viability (Dasatinib + Phenformin; first compound 0.005 µM) | relative viability (Dasatinib + Phenformin; first compound 0.01581 µM) | relative viability (Dasatinib + Phenformin; first compound 0.05 µM) | relative viability (Dasatinib + Phenformin; first compound 0.1581 µM) | relative viability (Dasatinib + Phenformin; first compound 0.5 µM) | relative viability (XMD13-2 + Decitabine; first compound 0.05 µM) | relative viability (XMD13-2 + Decitabine; first compound 0.1581 µM) | relative viability (XMD13-2 + Decitabine; first compound 0.5 µM) | relative viability (XMD13-2 + Decitabine; first compound 1.581 µM) | relative viability (XMD13-2 + Decitabine; first compound 5 µM) | relative viability (XMD13-2 + Palbociclib; first compound 0.05 µM) | relative viability (XMD13-2 + Palbociclib; first compound 0.1581 µM) | relative viability (XMD13-2 + Palbociclib; first compound 0.5 µM) | relative viability (XMD13-2 + Palbociclib; first compound 1.581 µM) | relative viability (XMD13-2 + Palbociclib; first compound 5 µM)
1 | NCI-H2085 | 0.799 | 0.745 | 0.553 | 0.292 | 0.187 | 0.636 | 0.651 | 0.458 | 0.215 | 0.162 | 0.622 | 0.525 | 0.593 | 0.51 | 0.563 | 0.488 | 0.477 | 0.481 | 0.429 | 0.472
2 | NCI-H2087 | 0.635 | 0.55 | 0.902 | 0.42 | 0.349 | 0.517 | 0.461 | 0.562 | 0.343 | 0.161 | 0.322 | 0.291 | 0.344 | 0.26 | 0.279 | 0.248 | 0.261 | 0.184 | 0.184 | 0.258
3 | NCI-H2126 | 0.932 | 0.84 | 0.845 | 0.681 | 0.416 | 0.56 | 0.521 | 0.471 | 0.39 | 0.285 | 0.598 | 0.56 | 0.545 | 0.539 | 0.619 | 0.385 | 0.398 | 0.309 | 0.336 | 0.323
4 | NCI-H2170 | 0.585 | 0.572 | 0.525 | 0.427 | 0.263 | 0.426 | 0.379 | 0.357 | 0.294 | 0.177 | 0.507 | 0.466 | 0.506 | 0.459 | 0.43 | 0.392 | 0.4 | 0.399 | 0.407 | 0.319
5 | NCI-H2342 | 0.564 | 0.397 | 0.364 | 0.274 | 0.285 | 0.626 | 0.482 | 0.556 | 0.356 | 0.304 | 0.724 | 0.841 | 0.778 | 0.716 | 0.807 | 0.517 | 0.522 | 0.546 | 0.488 | 0.502
6 | NCI-H2347 | 0.566 | 0.508 | 0.482 | 0.269 | 0.256 | 0.278 | 0.209 | 0.22 | 0.178 | 0.212 | 0.599 | 0.565 | 0.652 | 0.566 | 0.65 | 0.471 | 0.424 | 0.465 | 0.382 | 0.471
7 | NCI-H2405 | 0.749 | 0.531 | 0.458 | 0.282 | 0.231 | 0.363 | 0.301 | 0.258 | 0.153 | 0.137 | 0.796 | 0.731 | 0.73 | – | 0.673 | 0.545 | 0.529 | 0.474 | – | 0.518
8 | NCI-H3122 | 0.606 | 0.543 | 0.657 | 0.574 | 0.534 | 0.36 | 0.364 | 0.363 | 0.326 | 0.295 | 0.403 | 0.439 | 0.414 | 0.372 | 0.395 | 0.191 | 0.202 | 0.142 | 0.177 | 0.181
9 | PC-3 [JPC-3] | 1.22 | 1.14 | 1.16 | 1.08 | 0.609 | 0.482 | 0.458 | 0.453 | 0.473 | 0.305 | 0.794 | 0.892 | 0.851 | – | 0.842 | 0.558 | 0.508 | 0.571 | – | 0.532
10 | PC-14 | 0.29 | 0.31 | 0.368 | 0.224 | 0.0781 | 0.618 | 0.681 | 0.553 | 0.339 | 0.152 | 0.239 | 0.229 | 0.188 | 0.193 | 0.254 | 0.597 | 0.526 | 0.517 | 0.586 | 0.568
11 | RERF-LC-KJ | 0.906 | 0.836 | 0.87 | 0.788 | 0.816 | 0.406 | 0.348 | 0.363 | 0.355 | 0.305 | 0.813 | 0.747 | 0.711 | 0.702 | 0.713 | 1.06 | 1.11 | 1.1 | 1.04 | 1.03
12 | SK-LU-1 | 0.471 | 0.317 | 0.323 | 0.188 | 0.167 | 0.342 | 0.257 | 0.193 | 0.179 | 0.148 | 0.569 | 0.601 | 0.746 | 0.616 | 0.628 | 0.42 | 0.393 | 0.38 | 0.378 | 0.319
13 | SK-MES-1 | 0.766 | 0.794 | 0.56 | 0.214 | 0.151 | 0.721 | 0.681 | 0.669 | 0.361 | 0.171 | 0.429 | 0.409 | 0.373 | 0.339 | 0.455 | 0.308 | 0.312 | 0.304 | 0.329 | 0.326
14 | SW 900 | 0.65 | 0.436 | 0.395 | 0.324 | 0.336 | 0.489 | 0.568 | 0.53 | 0.466 | 0.294 | 0.51 | 0.454 | 0.447 | 0.439 | 0.447 | 0.592 | 0.382 | 0.669 | 0.549 | 0.589
15 | SW 1573 | 0.424 | 0.378 | 0.347 | 0.253 | 0.327 | 0.417 | 0.326 | 0.288 | 0.217 | 0.18 | 0.775 | 0.464 | 0.608 | 0.498 | 0.431 | 0.442 | 0.366 | 0.717 | 0.371 | 0.287
